Laboratory results as given in publication PMC4710668, “Bioactivation of food genotoxicants 5-hydroxymethylfurfural and furfuryl alcohol by sulfotransferases from human, mouse and rat: a comparative study” (Archives of Toxicology, 2014).

What was measured:
Assay in all cases: HMF sulfoconjugation assay
Format in all cases: biochemical
[1] = molecular target: T1, hSULT1A3 (Homo sapiens, UniProt P0DMM9)
T1 construct: made in house; host or cells: Salmonella typhimurium TA1538 (cytosolic fraction, not purified)
T1 sequence (P0DMM9 whole entry): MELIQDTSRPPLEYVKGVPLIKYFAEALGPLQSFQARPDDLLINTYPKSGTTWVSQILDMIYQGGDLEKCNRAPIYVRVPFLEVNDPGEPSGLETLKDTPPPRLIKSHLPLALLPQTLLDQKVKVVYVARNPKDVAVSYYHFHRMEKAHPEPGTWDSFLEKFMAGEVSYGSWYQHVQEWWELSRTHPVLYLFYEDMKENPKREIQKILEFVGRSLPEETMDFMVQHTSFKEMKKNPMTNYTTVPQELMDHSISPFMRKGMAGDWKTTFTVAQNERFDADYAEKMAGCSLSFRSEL
Experimental: (§1) Cytosolic fractions containing individual SULT forms were prepared from transgenic S. typhimurium TA1538. Table S1 in the Supplementary Material provides a summary of the thirty SULTs used in the current study together with references describing the cloning of the respective S. typhimurium TA1538 strains. The expressed SULT forms are denoted with the prefixes h, m and r for human, mouse and rat enzymes, respectively. Bacteria were grown in Luria Broth medium containing ampicillin (100 µg/ml) by stirring for 8 h at 200 revolutions/min at 37 °C. The bacterial suspensions were centrifuged at 5,000 g for 10 min. The sediments were washed twice with 25 ml of 10 mM potassium phosphate buffer (pH 7.4)/50 mM potassium chloride (KCP buffer) and centrifuged again. The pellets were taken up in 800 µl KCP buffer and sonicated thrice for 15 s with 30 s pauses in between. The soluble fraction was attained by centrifuging for 1 h at 100,000 g. The supernatants (in the following termed cytosolic preparations) were frozen at −80 °C. The protein concentrations were determined according to a bicinchoninic acid (BCA) assay protocol. The SULT concentrations in the cytosolic preparations were estimated after electrophoretic separation and immunodetection using inclusion bodies of different SULT forms as standards (Teubner et al. [2007]). The preparation of SULT inclusion bodies and the immunodetection of SULTs is described in the Supplementary Material, which also contains a representative immunoblot of different amounts of rSult1a1standard and a cytosolic preparation of S. typhimurium expressing rSult1a1 (Fig. S1).
(§2) The reactions were conducted in mixtures of 100 µl containing 25–200 µg protein, 50 mM potassium phosphate buffer (pH 7.4), 5 mM MgCl2, 50 µM PAPS and different concentrations of HMF at 37 °C. Preliminary experiments ensured that measurements were recorded under ‘linear’ conditions, i.e., doubling of protein concentration or incubation time was doubling the amount of sulfate ester formed. The reactions were stopped after 30 min by adding 300 µl ice-cold 2-propanol, mixed and centrifuged at 15,000 g for 10 min.
(§3) SMF concentrations of the clear supernatants were analyzed by UPLC-MS/MS. The protocol was adapted from the quantification of SMF in plasma samples of HMF-treated mice (Monien et al. [2009]). In short, the supernatants were analyzed using a UPLC system (Waters) connected to a Quattro Premier XE tandem quadrupole mass spectrometer (Waters) using the negative electrospray ionization mode. Samples of 4 µl were injected into a HSS T3 column (1.8 µm, 2.1 × 100 mm; Waters) and eluted with an isocratic flow of 0.35 ml/min 10 mM ammonium acetate/methanol (95:5). The fragmentation reactions of SMF yielding two principal ions, the sulfate ion radical (m/z = 204.9 → 96.0) and the protonated sulfonate ion (m/z = 204.9 → 81.0) were monitored. The tune parameters were as follows: temperature of the electrospray source 120 °C; desolvation temperature 475 °C; desolvation gas nitrogen (800 l/h); cone gas nitrogen (100 l/h); collision gas argon (indicated cell pressure ~5 × 10^−3 mbar). For the fragmentation of SMF, collision energies were 20 and 23 eV for the transitions m/z = 204.9 → 81.0 and m/z = 204.9 → 96.0, respectively. The dwell time was set to 100 ms, and capillary voltage was set to 0.35 kV. The cone and RF1 lens voltages were 32 and 0.2 V, respectively. SMF was quantified using an external calibration line that was linear in the concentration range of 1.0 nM (4 fmol/injection) to 2,500 (10 pmol/injection) SMF (r ^2 ≥ 0.99). Data acquisition and handling were performed with MassLynx 4.1 software (Waters). The limit of detection (LOD) for this technique of 2.5 nM SMF has been reported (Monien et al. [2009]). In the current study, this corresponds to 10 fmol SMF per injection or a reaction rate of 0.5 pmol SMF/mg/min.

[2] = molecular target: T2, hSULT1B1 (Homo sapiens, UniProt O43704)
T2 construct: made in house; host or cells: Salmonella typhimurium TA1538 (cytosolic fraction, not purified)
T2 sequence (O43704 whole entry): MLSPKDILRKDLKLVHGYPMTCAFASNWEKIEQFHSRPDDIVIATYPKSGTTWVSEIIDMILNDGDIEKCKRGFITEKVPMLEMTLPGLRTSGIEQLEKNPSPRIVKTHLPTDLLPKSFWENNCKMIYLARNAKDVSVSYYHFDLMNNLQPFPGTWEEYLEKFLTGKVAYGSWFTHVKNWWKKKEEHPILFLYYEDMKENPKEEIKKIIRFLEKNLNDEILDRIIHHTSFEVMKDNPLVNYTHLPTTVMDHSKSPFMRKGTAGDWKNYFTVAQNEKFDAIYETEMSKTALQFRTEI
Experimental: as §1, §2, §3

[3] = molecular target: T3, hSULT1C3 (Homo sapiens, UniProt Q6IMI6)
T3 construct: made in house; host or cells: Salmonella typhimurium TA1538 (cytosolic fraction, not purified)
T3 sequence (Q6IMI6 whole entry): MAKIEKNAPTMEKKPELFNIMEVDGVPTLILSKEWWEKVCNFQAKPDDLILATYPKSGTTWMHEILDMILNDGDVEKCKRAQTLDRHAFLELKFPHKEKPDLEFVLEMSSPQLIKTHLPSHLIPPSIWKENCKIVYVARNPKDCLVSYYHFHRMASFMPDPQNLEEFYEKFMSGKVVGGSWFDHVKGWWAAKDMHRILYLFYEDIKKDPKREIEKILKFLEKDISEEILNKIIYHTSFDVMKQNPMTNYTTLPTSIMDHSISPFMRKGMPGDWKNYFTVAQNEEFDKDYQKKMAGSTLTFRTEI
Experimental: as §1, §2, §3

[4] = molecular target: T4, hSULT2B1a (Homo sapiens, UniProt O00204)
T4 construct: made in house; host or cells: Salmonella typhimurium TA1538 (cytosolic fraction, not purified)
T4 sequence (O00204 1-350 isoform O00204-2): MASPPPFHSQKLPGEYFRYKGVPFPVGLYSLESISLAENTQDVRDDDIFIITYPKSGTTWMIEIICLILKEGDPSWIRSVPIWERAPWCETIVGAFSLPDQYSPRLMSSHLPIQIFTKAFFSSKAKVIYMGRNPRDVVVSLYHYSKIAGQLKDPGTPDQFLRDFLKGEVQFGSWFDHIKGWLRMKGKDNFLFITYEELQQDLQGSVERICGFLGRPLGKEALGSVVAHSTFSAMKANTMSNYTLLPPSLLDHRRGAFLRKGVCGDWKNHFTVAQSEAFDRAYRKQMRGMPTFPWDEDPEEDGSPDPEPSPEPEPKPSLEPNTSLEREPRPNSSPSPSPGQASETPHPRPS
Experimental: as §1, §2, §3

[5] = molecular target: T5, hSULT4A1 (Homo sapiens, UniProt Q9BR01)
T5 construct: made in house; host or cells: Salmonella typhimurium TA1538 (cytosolic fraction, not purified)
T5 sequence (Q9BR01 1-284): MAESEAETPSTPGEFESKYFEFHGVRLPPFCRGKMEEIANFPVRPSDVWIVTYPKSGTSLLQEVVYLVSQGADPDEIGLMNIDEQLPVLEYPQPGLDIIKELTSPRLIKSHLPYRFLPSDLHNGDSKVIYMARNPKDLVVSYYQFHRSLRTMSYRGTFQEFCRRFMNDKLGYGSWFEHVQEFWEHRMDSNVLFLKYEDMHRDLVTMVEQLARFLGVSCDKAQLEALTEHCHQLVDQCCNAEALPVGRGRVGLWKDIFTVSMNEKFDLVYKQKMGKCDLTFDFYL
Experimental: as §1, §2, §3

[6] = molecular target: T6, mSult1a1 (Mus musculus, UniProt P52840)
T6 construct: made in house; host or cells: Salmonella typhimurium TA1538 (cytosolic fraction, enzyme not purified)
T6 sequence (P52840 whole entry): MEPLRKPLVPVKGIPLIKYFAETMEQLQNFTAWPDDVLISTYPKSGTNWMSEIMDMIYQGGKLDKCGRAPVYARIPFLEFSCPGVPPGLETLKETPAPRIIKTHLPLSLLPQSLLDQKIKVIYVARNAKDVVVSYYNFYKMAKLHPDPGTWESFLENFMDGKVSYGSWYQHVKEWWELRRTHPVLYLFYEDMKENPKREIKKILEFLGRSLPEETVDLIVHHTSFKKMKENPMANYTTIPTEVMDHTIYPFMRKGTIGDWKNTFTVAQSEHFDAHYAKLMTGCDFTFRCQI
Experimental: as §1, §2, §3

[7] = HMF sulfoconjugation, Michaelis-Menten fit

In the case of `O=Cc1ccc(CO)o1` [HMF, 5-Hydroxymethylfurfural], the Rate of sulfoconjugation ([1]; 0.1 mM HMF) is reported as 1.2 ± 0.1 pmol/mg/min, the Rate of sulfoconjugation ([1]; 1 mM HMF) is reported as 12.1 ± 1.5 pmol/mg/min and the Rate of sulfoconjugation ([1]; 10 mM HMF) is reported as 117 ± 12 pmol/mg/min. The Rate of sulfoconjugation ([1]; 100 mM HMF) was 406 ± 39 pmol/mg/min, the “K M” value [1, 7] was 16.7 ± 1.8 mM and the Rate of sulfoconjugation ([2]; 0.1 mM HMF) was 2.0 ± 0.5 pmol/mg/min. It also gave a Rate of sulfoconjugation ([2]; 1 mM HMF) of 22.2 ± 5.2 pmol/mg/min, a Rate of sulfoconjugation ([2]; 10 mM HMF) of 133 ± 28 pmol/mg/min and a Rate of sulfoconjugation ([2]; 100 mM HMF) of 272 ± 49 pmol/mg/min. The “K M” value [2, 7] was 13.3 ± 0.3 mM, the Rate of sulfoconjugation ([3]; 0.1 mM HMF) was less than 0.5 pmol/mg/min and the Rate of sulfoconjugation ([3]; 1 mM HMF) was 1.0 ± 0.1 pmol/mg/min. It also gave a Rate of sulfoconjugation ([3]; 10 mM HMF) of 7.2 ± 0.9 pmol/mg/min, a Rate of sulfoconjugation ([3]; 100 mM HMF) of 3.6 ± 0.2 pmol/mg/min and a Rate of sulfoconjugation ([4]; 0.1 mM HMF) of less than 0.5 pmol/mg/min. It also gave a Rate of sulfoconjugation ([4]; 1 mM HMF) of less than 0.5 pmol/mg/min, a Rate of sulfoconjugation ([4]; 10 mM HMF) of less than 0.5 pmol/mg/min and a Rate of sulfoconjugation ([4]; 100 mM HMF) of less than 0.5 pmol/mg/min. For the same compound, the Rate of sulfoconjugation ([5]; 0.1 mM HMF) was less than 0.5 pmol/mg/min, the Rate of sulfoconjugation ([5]; 1 mM HMF) was less than 0.5 pmol/mg/min and the Rate of sulfoconjugation ([5]; 10 mM HMF) was less than 0.5 pmol/mg/min. The Rate of sulfoconjugation ([5]; 100 mM HMF) was less than 0.5 pmol/mg/min, the Rate of sulfoconjugation ([6]; 0.1 mM HMF) was 76.6 ± 14.4 pmol/mg/min and the Rate of sulfoconjugation ([6]; 1 mM HMF) was 722 ± 93 pmol/mg/min. The Rate of sulfoconjugation ([6]; 10 mM HMF) was 2,010 ± 210 pmol/mg/min, the Rate of sulfoconjugation ([6]; 100 mM HMF) was 1,970 ± 70 pmol/mg/min and the “K M” value [6, 7] was 2.0 ± 0.3 mM.
